One data set has as its system Male Sprague-Dawley rats. The data set is described as follows: Determination of serum HDL cholesterol in cholesterol/cholic acid-fed rats. Particulars: dose of 100 mg/kg mixed in diet, eight days, six rats per group, diet with 0.25% cholic acid and 1.0% cholesterol, serum HDL cholesterol by FPLC; for change in vivo at 100 mg/kg: Rattus norvegicus, feed or water, 192 h, read-out: HDL Cholesterol Level Increase (%). Format: in vivo, rat. The protocol: The ability of the compounds of this invention to increase blood serum HDL levels was evaluated by the following standard experimental procedure for determination of HDL cholesterol:
Male Sprague-Dawley rats weighing 200-225 g were housed two per cage and fed Purina Rodent Chow Special Mix 5001-S supplemented with 0.25% cholic acid and 1.0% cholesterol and water ad libitum for 8 days. Each test substance was administered to a group of six rats fed the same diet with the test diet mixed in as 0.005-0.1% of the total diet. Body weight and food consumption were recorded prior to diet administration and at termination. Typical doses of the test substances are 5-100 mg/kg/day.
At termination, blood was collected from anesthetized rats and the serum was separated by centrifugation. Total serum cholesterol was assayed using the Sigma Diagnostics enzymatic kit for the determination of cholesterol, Procedure No. 352, modified for use with ninety-six well microtiter plates. After reconstitution with water the reagent contained 300 U/l cholesterol oxidase, 100 U/l cholesterol esterase, 1000 U/l horseradish peroxidase, […] p-hydroxybenzenesulfonate in a pH 6.5 buffer. In the reaction cholesterol is oxidized to produce hydrogen peroxide which is used to form a quinoneimine dye. The concentration of dye formed is measured spectrophotometrically by absorbence at 490 nm after incubation at 25° C. for 30 minutes. The concentration of cholesterol was determined for each serum sample relative to a commercial standard from Sigma.
HDL cholesterol concentrations in serum were determined by separation of lipoprotein classes by fast protein liquid chromatography (FPLC) by a modification of the method of Kieft et al., J. Lipid Res., 32 (1991) 859-866. 25 ul of serum was injected onto Superose 12 and Superose 6 (Pharmacia), in series, with a column buffer of 0.05 M Tris (2-amino-2-hydroxymethyl-1,3-propanediol) and 0.15 M sodium chloride at a flow rate of 0.5 ml/min. The eluted sample was mixed on line with Boehringer-Mannheim cholesterol reagent pumped at 0.2 ml/min. The combined eluents were mixed and incubated on line through a knitted coil (Applied Biosciences) maintained at a temperature of 45° C. The eluent was monitored by measuring absorbance at 490 nm and gave a continuous absorbance signal proportional to the cholesterol concentration. The relative concentration of each lipoprotein class was calculated as the per cent of total absorbency. HDL cholesterol concentration, in serum, was calculated as the per cent of total cholesterol as determined by FPLC multiplied by the total serum cholesterol concentration.
Test compounds were administered at a dose of 100 mg/kg. Each test substance was administered to a group of six rats. The duration of treatment was eight days.

As usually defined, the melting point is the temperature, or range, at which the solid turns liquid. `CCOC(=O)CON(C)C(=S)Nc1cc(Cl)ccc1C` [Example 1, Ethyl [[[[(5-Chloro-2-methylphenyl)amino]thioxomethyl]methylamino]oxy]acetate]: the melting point lay within 83 to 84 °C. Also, the change in vivo at 100 mg/kg in the data set on Male Sprague-Dawley rats is 118%.

Regarding `CCOC(=O)CON(C)C(=S)Nc1ccc(Cl)cc1C` [Example 2, Ethyl [[[[(4-Chloro-2-methylphenyl)amino]thioxomethyl]methylamino]oxy]acetate], the melting point was in the range of 104 to 106 °C. Besides, the change in vivo at 100 mg/kg with Male Sprague-Dawley rats came to 62%.

`CCOC(=O)CON(C)C(=S)Nc1ccc2c(c1)CCC2` [Example 3, Ethyl [[[[(2,3-dihydro-1H-inden-5-yl)amino]thioxomethyl]methylamino]oxy]acetate]: the melting point lay in the range of 69 to 71 °C. In addition, the change in vivo at 100 mg/kg with Male Sprague-Dawley rats worked out at 146%.

Regarding `CCOC(=O)CON(C)C(=S)Nc1cc(C)ccc1C` [Example 5, Ethyl [[[[(2,5-dimethylphenyl)amino]thioxomethyl]methylamino]oxy]acetate], the change in vivo at 100 mg/kg with Male Sprague-Dawley rats is 40%.

On to `CCOC(=O)CON(C)C(=S)NCC(C)C` [Example 6, Ethyl [[[[(2-methylpropyl)amino]thioxomethyl]methylamino]oxy]acetate], for which, in the data set on Male Sprague-Dawley rats, the change in vivo at 100 mg/kg was 17%.

In the case of `CCOC(=O)CON(C)C(=S)Nc1ccc(Oc2ccccc2)cc1` [Example 7, Ethyl [[[[(4-phenoxyphenyl)amino]thioxomethyl]methylamino]oxy]acetate], the change in vivo at 100 mg/kg in the data set with Male Sprague-Dawley rats came out at 35%.

For the compound `CCOC(=O)CON(CC)C(=S)Nc1ccc(Cl)cc1C` [Example 8, Ethyl [[[[(4-Chloro-2-methylphenyl)amino]thioxomethyl]ethylamino]oxy]acetate], the melting point is 69 to 71 °C. Moreover, the change in vivo at 100 mg/kg in the data set on Male Sprague-Dawley rats was 90%.

`CCOC(=O)CON(C(=S)Nc1cc(Cl)ccc1C)C(C)C` [Example 9, Ethyl [[[[(5-Chloro-2-methylphenyl)amino]thioxomethyl](1-methylethyl)amino]oxy]acetate] displayed a melting point of 83 to 85 °C. In addition, the change in vivo at 100 mg/kg in the data set with Male Sprague-Dawley rats was 46%.

For `CCOC(=O)CON(C(=S)Nc1cc(Cl)ccc1C)C(C)CC` (stereo not drawn) [Example 10, Ethyl [[[[(5-Chloro-2-methylphenyl)amino]thioxomethyl](1-methylpropyl)amino]oxy]acetate], in the data set with Male Sprague-Dawley rats, the change in vivo at 100 mg/kg is 39%.

For the compound “Ethyl [[methyl[[(2-(1-methylethyl)phenyl]amino]thioxomethyl]methylamino]oxy]acetate [Example 4]”, the “HDL Cholesterol Level Increase (%)” value with Male Sprague-Dawley rats was determined as 104%.

Values taken from patent publication US6472430B2, “Amino thioxomethyl amino oxyacetic acid derivatives” (priority 2000, dated 2002).
